Values quoted from earlier work, collected in US8759352B2, “1-(4-ureidobenzoyl)piperazine derivatives” (Merck Sharp & Dohme B.V., priority 2008, dated 2014).

Assays:
[1] = test system: vascular smooth muscle cell; details: in vitro and in vivo; Blaschke et al. 2004
[2] = test system: neointima formation; details: in vitro and in vivo; Blaschke et al. 2004
[3] = test system: β-amyloid; details: Riddell et al. 2007
[4] = test system: tumours; details: animal model of prostate cancer; Chuu et al. 2006

Structure (SMILES): O=S(=O)(c1ccccc1)N(CC(F)(F)F)c1ccc(C(O)(C(F)(F)F)C(F)(F)F)cc1 [Example T0901317]
- vascular smooth muscle cell proliferation [1]: inhibit
- neointima formation following balloon injury [2]: inhibit
- deposition of β-amyloid [3]: lower deposition of β-amyloid
- memory [3]: improve memory
- progression of tumours [4]: delayed progression of tumours
